In patent publication US9181193B2, “Indenoquinolone compound, preparation method and use thereof” (Second Military Medical University, PLA, priority 2010, dated 2015):

What was measured:
Type in all cases: cell-based
[1] = test system: HepG2 (human hepatoma cells); test: MTT in vitro anti-tumor activity test, HepG2
[2] = test system: A549 (human lung cancer cells); test: MTT in vitro anti-tumor activity test, A549
[3] = test system: Colo205 (human colon cancer cells); test: MTT in vitro anti-tumor activity test, Colo205
[4] = test system: MDA-MB-435 (human breast cancer cells); test: MTT in vitro anti-tumor activity test, MDA-MB-435
[5] = HepG2 human hepatoma cells, MTT, 72 h
[6] = A549 human lung cancer cells, MTT, 72 h
[7] = Colo205 human colon cancer cells, MTT, 72 h
[8] = MDA-MB-435, 100 μg/mL, MTT, 72 h
[9] = MDA-MB-435 human breast cancer cells, MTT, 72 h
[10] = MTT assay, 72 h incubation, HepG2 cells
[11] = inhibition at 100 μg/mL, MTT assay, 72 h, HepG2 cells
[12] = MTT assay, 72 h incubation, A549 cells
[13] = inhibition at 100 μg/mL, MTT assay, 72 h, A549 cells
[14] = MTT assay, 72 h incubation, Colo205 cells
[15] = inhibition at 100 μg/mL, MTT assay, 72 h, Colo205 cells
[16] = MTT assay, 72 h incubation, MDA-MB-435 cells
[17] = inhibition at 100 μg/mL, MTT assay, 72 h, MDA-MB-435 cells

## COc1ccc2c(c1)C(=O)c1c-2c(OCCN2CCCC2)nc2cc(OC)c(OC)cc12 [Compound 22]
[1]; HepG2, 100 μg/mL, MTT, 72 h
  HepG2 100 μg/mL IC %: 81.69%
[1]; [5]
  HepG2 IC50: 8.61 µg/mL
[2]; A549, 100 μg/mL, MTT, 72 h
  A549 100 μg/mL IC %: 97.05%
[2]; [6]
  A549 IC50: 1.43 µg/mL
[3]; Colo205, 100 μg/mL, MTT, 72 h
  Colo205 100 μg/mL IC %: 93.84%
[3]; [7]
  Colo205 IC50: 1.30 µg/mL
[4]; [8]
  MDA-MB-435 100 μg/mL IC %: 100%
[4]; [9]
  MDA-MB-435 IC50: 1.85 µg/mL

## COc1ccc2c(c1)C(=O)c1c-2c(=O)n(CCN2CCOCC2)c2ccccc12 [Compound 33]
[1]; [10]
  HepG2 IC50: >100 µg/mL
[1]; [11]
  HepG2 100 μg/mL IC %: 4.57%
[2]; [12]
  A549 IC50: >100 µg/mL
[2]; [13]
  A549 100 μg/mL IC %: 40.55%
[3]; [14]
  Colo205 IC50: >100 µg/mL
[3]; [15]
  Colo205 100 μg/mL IC %: 29.31%
[4]; [16]
  MDA-MB-435 IC50: >100 µg/mL
[4]; [17]
  MDA-MB-435 100 μg/mL IC %: 27.19%

## COc1cc2c3c(c(=O)n(CCN(C)C)c2cc1OC)-c1ccc(Cl)cc1C3=O [Compound 47]
[1]; [10]
  HepG2 IC50: 8.33 µg/mL
[1]; [11]
  HepG2 100 μg/mL IC %: 64.50%
[2]; [12]
  A549 IC50: 10.60 µg/mL
[2]; [13]
  A549 100 μg/mL IC %: 87.20%
[3]; [14]
  Colo205 IC50: 1.66 µg/mL
[3]; [15]
  Colo205 100 μg/mL IC %: 88.74%
[4]; [16]
  MDA-MB-435 IC50: 5.30 µg/mL
[4]; [17]
  MDA-MB-435 100 μg/mL IC %: 100%

## COc1cc2nc(OCCCN(C)C)c3c(c2cc1OC)C(=O)c1cc(Cl)ccc1-3 [Compound 29]
[1]; HepG2, 100 μg/mL, MTT, 72 h
  HepG2 100 μg/mL IC %: 91.20%
[1]; [5]
  HepG2 IC50: 3.71 µg/mL
[2]; A549, 100 μg/mL, MTT, 72 h
  A549 100 μg/mL IC %: 100%
[2]; [6]
  A549 IC50: 1.04 µg/mL
[3]; Colo205, 100 μg/mL, MTT, 72 h
  Colo205 100 μg/mL IC %: 98.69%
[3]; [7]
  Colo205 IC50: 1.47 µg/mL
[4]; [8]
  MDA-MB-435 100 μg/mL IC %: 100%
[4]; [9]
  MDA-MB-435 IC50: 1.45 µg/mL

## COc1ccc2c(c1)C(=O)c1c-2c(OCCN(C)C)nc2ccc(OC)cc12 [Compound 13]
[1]; HepG2, 100 μg/mL, MTT, 72 h
  HepG2 100 μg/mL IC %: 100%
[1]; [5]
  HepG2 IC50: 2.47 µg/mL
[2]; A549, 100 μg/mL, MTT, 72 h
  A549 100 μg/mL IC %: 100%
[2]; [6]
  A549 IC50: 17.27 µg/mL
[3]; Colo205, 100 μg/mL, MTT, 72 h
  Colo205 100 μg/mL IC %: 96.52%
[3]; [7]
  Colo205 IC50: 1.79 µg/mL
[4]; [8]
  MDA-MB-435 100 μg/mL IC %: 100%
[4]; [9]
  MDA-MB-435 IC50: 4.34 µg/mL

## CCN(CC)CCOc1nc2ccccc2c2c1-c1ccc(Cl)cc1C2=O [Compound 8]
[1]; HepG2, 100 μg/mL, MTT, 72 h
  HepG2 100 μg/mL IC %: 73.57%
[1]; [5]
  HepG2 IC50: 28.84 µg/mL
[2]; A549, 100 μg/mL, MTT, 72 h
  A549 100 μg/mL IC %: 84.24%
[2]; [6]
  A549 IC50: 28.56 µg/mL
[3]; Colo205, 100 μg/mL, MTT, 72 h
  Colo205 100 μg/mL IC %: 99.01%
[3]; [7]
  Colo205 IC50: 15.16 µg/mL
[4]; [8]
  MDA-MB-435 100 μg/mL IC %: 100%
[4]; [9]
  MDA-MB-435 IC50: 31.62 µg/mL

## O=C1c2cc(Cl)ccc2-c2c1c1ccccc1n(CCN1CCCCC1)c2=O [Compound 39]
[1]; [10]
  HepG2 IC50: >100 µg/mL
[1]; [11]
  HepG2 100 μg/mL IC %: 22.39%
[2]; [12]
  A549 IC50: >100 µg/mL
[2]; [13]
  A549 100 μg/mL IC %: 47.81%
[3]; [14]
  Colo205 IC50: >100 µg/mL
[3]; [15]
  Colo205 100 μg/mL IC %: 13.12%
[4]; [16]
  MDA-MB-435 IC50: >100 µg/mL
[4]; [17]
  MDA-MB-435 100 μg/mL IC %: 14.88%

## COc1ccc2nc(OCCN3CCCC3)c3c(c2c1)C(=O)c1cc(Br)ccc1-3 [Compound 18]
[1]; HepG2, 100 μg/mL, MTT, 72 h
  HepG2 100 μg/mL IC %: 35.48%
[1]; [5]
  HepG2 IC50: >100 µg/mL
[2]; A549, 100 μg/mL, MTT, 72 h
  A549 100 μg/mL IC %: 35.69%
[2]; [6]
  A549 IC50: >100 µg/mL
[3]; Colo205, 100 μg/mL, MTT, 72 h
  Colo205 100 μg/mL IC %: 43.88%
[3]; [7]
  Colo205 IC50: >100 µg/mL
[4]; [8]
  MDA-MB-435 100 μg/mL IC %: 67.72%
[4]; [9]
  MDA-MB-435 IC50: 24.86 µg/mL

## CCN(CC)CCOc1nc2cc(OC)c(OC)cc2c2c1-c1ccc(OC)cc1C2=O [Compound 21]
[1]; HepG2, 100 μg/mL, MTT, 72 h
  HepG2 100 μg/mL IC %: 93.16%
[1]; [5]
  HepG2 IC50: 0.700 µg/mL
[2]; A549, 100 μg/mL, MTT, 72 h
  A549 100 μg/mL IC %: 100%
[2]; [6]
  A549 IC50: 1.68 µg/mL
[3]; Colo205, 100 μg/mL, MTT, 72 h
  Colo205 100 μg/mL IC %: 88.97%
[3]; [7]
  Colo205 IC50: 2.56 µg/mL
[4]; [8]
  MDA-MB-435 100 μg/mL IC %: 93.41%
[4]; [9]
  MDA-MB-435 IC50: 1.17 µg/mL
